{"source": "patent US11526092B2", "about": "“Electrophotographic photoreceptor, process cartridge, and image forming apparatus” (FUJIFILM Business Innovation Corp., priority 2019, dated 2022)", "origin": "cited, not measured here", "details": "in water at 25° C.; first acid dissociation constant (pKa1)"}
{"smiles": "CCCCCCCCCCCCc1ccc(S(=O)(=O)O)cc1", "note": "[DBS, dodecylbenzenesulfonic acid]", "values": [{"measurement": "Acidic compound pKa", "value": "−2"}]}
